The target in assay [1] is T1, isomerase (Bos taurus, UniProt Q28175).
T1 construct: Purified RPE microsomes were the source of the enzymes; from tissue; host or cells: bovine retinal pigment epithelium microsomes
T1 sequence (Q28175 2-533 limits assumed): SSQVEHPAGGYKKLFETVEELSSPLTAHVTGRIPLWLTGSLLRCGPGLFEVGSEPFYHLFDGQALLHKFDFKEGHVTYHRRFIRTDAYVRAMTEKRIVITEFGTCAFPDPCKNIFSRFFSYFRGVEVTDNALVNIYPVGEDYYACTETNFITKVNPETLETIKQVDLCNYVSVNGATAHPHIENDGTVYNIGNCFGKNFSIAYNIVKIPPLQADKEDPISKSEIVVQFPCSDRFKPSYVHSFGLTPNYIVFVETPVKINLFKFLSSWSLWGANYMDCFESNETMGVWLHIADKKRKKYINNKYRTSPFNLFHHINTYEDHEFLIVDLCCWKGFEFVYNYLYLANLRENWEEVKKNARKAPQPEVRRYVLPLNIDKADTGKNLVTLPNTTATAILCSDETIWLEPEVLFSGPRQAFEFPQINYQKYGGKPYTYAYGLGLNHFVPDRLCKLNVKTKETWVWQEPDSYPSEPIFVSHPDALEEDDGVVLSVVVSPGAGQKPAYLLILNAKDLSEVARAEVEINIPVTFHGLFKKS
Description: isomerase reaction: 11-cis-retinol production by RPE microsomes from all-trans-retinol. In kind it is biochemical, bovine. As to conditions: for IC50 / inhibition of isomerization (in words): RPE microsomes; for IC50: all-trans-retinol substrate, read-out: IC50, inhibition of 11-cis-retinol production; for inhibition of isomerization (in words): in vitro; for lowering of potency by saturation of the C13-14 double bond: relative to the 11-cis- and all-trans-isomers of Ret-NH2. As to the method: (§1) To test if 11-cis-retinylamine (11-cis Ret-NH2) affects isomerization and esterification, an in vitro assay was employed. In this assay both of the all-trans-retinyl esters formed in the reaction catalyzed by LRAT and 11-cis-retinol production by isomerase were measured (6). Purified RPE microsomes were the source of the enzymes, and all-trans-retinol was the substrate. […] Inhibition of isomerization by Ret-NH2 is not due to binding of CRALBP or competition with 11-cis-retinol for binding to CRALBP. […] An increased concentration of all-trans-retinol lowered the level of inhibition, as illustrated in FIG. 2B. […] Dixon's and Lineweaver-Burk plots in the standard assay conditions yielded Ki=0.1 μM for Ret-NH2 when all-trans-retinol (KM=0.3 μM) was assumed to be a substrate. […] This estimated value reflects the very potent nature of the inhibition by 11-cis-Ret-NH2.
Materials—Fresh bovine eyes were obtained from a local slaughterhouse (Schenk Packing Co., Inc., Stanwood, Wash.). Preparation of bovine RPE microsomes was performed according to previously described methods (Stecher et al., J Biol Chem 274:8577-85, 1999). All chemicals were purchased from Sigma-Aldrich (St. Louis, Mo.). 11-cis-Retinal was obtained from Dr. Rosalie Crouch (Charleston, S.C.).
Reaction conditions for isomerase and LRAT reaction—The isomerase reaction was performed essentially as described previously (Stecher et al., J Biol Chem 274:8577-85, 1999). The reaction was carried out in 10 mM BTP buffer, pH 7.5, 1% BSA, containing 1 mM ATP and 6 μM apo-CRALBP. To investigate inhibition properties of Ret-NH2 and its derivatives, RPE microsomes were preincubated for 5 min in 37° C. with the indicated compound in 10 mM BTP buffer, pH 7.5, 1% BSA, 1 mM ATP prior to addition of apo-CRALBP and all-trans-retinol. Ret-NH2 and its derivatives were delivered to the reaction mixture in 1 μl of DMF, and the same volume of DMF was added to the control reaction. Each experiment was performed three times in duplicate. The average values were used and the standard deviations were calculated.

In assay [2] the target is CRALBP (Homo sapiens, UniProt P12271). Description: analysis of retinoids bound to CRALBP isolated from the reaction mixture. In kind it is binding.
In assay [3] the target is T2, LRAT (Bos taurus, UniProt Q9BGL2).
T2 construct: Purified RPE microsomes were the source of the enzymes; from tissue; host or cells: bovine retinal pigment epithelium microsomes
T2 sequence (Q9BGL2 1-230): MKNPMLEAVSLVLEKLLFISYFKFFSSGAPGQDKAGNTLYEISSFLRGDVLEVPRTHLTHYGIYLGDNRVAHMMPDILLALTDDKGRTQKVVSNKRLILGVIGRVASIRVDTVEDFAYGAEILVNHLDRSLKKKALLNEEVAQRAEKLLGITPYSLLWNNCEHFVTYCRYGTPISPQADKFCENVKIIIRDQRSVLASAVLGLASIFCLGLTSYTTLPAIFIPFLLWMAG
Description: LRAT reaction: formation of all-trans-retinyl esters by RPE microsomes. In kind it is biochemical, bovine. As to conditions: all-trans-retinol substrate. As for the experimental part: as §1
Materials—Fresh bovine eyes were obtained from a local slaughterhouse (Schenk Packing Co., Inc., Stanwood, Wash.). Preparation of bovine RPE microsomes was performed according to previously described methods (Stecher et al., J Biol Chem 274:8577-85, 1999). […]
Reaction conditions for isomerase and LRAT reaction—The isomerase reaction was performed essentially as described previously (Stecher et al., J Biol Chem 274:8577-85, 1999). […] The average values were used and the standard deviations were calculated.

Assay [4] deals with regeneration of vision chromophore (11-cis-retinal). Description: regeneration of 11-cis-retinal in mouse eyes after gavage and light bleach, HPLC retinoid analysis. In kind it is in vivo. The note with it: gavage in vegetable oil, 16 hours dark, light stimulated, 5 hours dark. As for the experimental part: Mice were gavaged with all-trains-Ret-NH2, exposed to intense light for 20 min, and then allowed to recover in the dark for 5 hours. The total amount of different forms of retinoids in all experiments was unchanged. […] For this experiment mice were treated with both 9-cis-retinol and all-trans-Ret-NH2, and bleached after 24 hours, and were allowed to recover for 5 hours in the dark. The presence of 9-cis-retinal was confirmed in treated animals (see peaks 4 and 4′ in FIG. 4A bottom panel, corresponding to syn- and anti-9-cis-retinal oximes, respectively). 11-cis-Retinal was not reduced and/or esterified after treatment with Ret-NH2. […] This supports the idea that Ret-NH2 is a specific inhibitor of the isomerization reaction.
A. Chromatographic separation of nonpolar retinoids from WT mouse eyes. Mice were gavaged with all-trans-Ret-NH2 24 hours prior to bleaching for 20 min at 150 cd·m^−2 W in the Ganzfeld chamber. Regeneration of 11-cis-retinal was allowed for 24 hours in the dark, and retinoids were extracted from the eye and separated by normal phase HPLC as described in Materials and Methods. The peaks were identified based on elution time and absorption spectra correspond to the following retinoids: 1, all-trans-retinyl esters; 2,2′, syn- and anti-11-cis-retinal oximes; 3, syn-all-trans-retinal oxime; 4,4′, syn- and anti-9-cis-retinal oximes; 5, all-trans-retinol. B. Changes of 11-cis-retinal oxime levels at increasing doses of all-trans-Ret-NH2 during 5 hours or 24 hours of dark adaptation. Square indicates the level of 11-cis-retinal oximes that was present in mice gavaged with vegetable oil without retinoids just after bleaching, and arrow indicates the increase of visual chromophore during 5 hours of dark adaptation. Triangles correspond to the level of 11-cis-retinal found in the mice gavaged with 50 mg/kg of 13-cis-RA. C and D. Single flash ERG responses of increasing intensity for all-trans-Ret-NH2 treated mice and control mice. Serial responses to increasing flash stimuli were obtained for all-trans-Ret-NH2 treated and control mice for selected intensities (C) and plotted as a function of a-wave and b-wave versus varying light intensities under dark-adapted conditions (D) before bleach and at 5 hours and 24 hours after bleach. The dark-adapted mice were bleached with intense constant illumination (150 cd·m^−2) for 20 min. […] SE bars are shown.
Chromatographic separation of nonpolar retinoids from WT mouse eyes. Mice were gavaged with 100 mg/kg of all-trans-Ret-NH2 24 hours prior to bleaching. Mice were next exposed to 500 cd m^−2 for 48 min bleaching in the Ganzfeld chamber. Regeneration of 11-cis-retinal was allowed for 24 hours in the dark, and retinoids were extracted from the eye and separated by normal phase HPLC as described in Materials and Methods. The peaks identified based on elution time and absorption spectra correspond to the following retinoids: 1, all-trans-retinyl esters; 2,2′, syn- and anti-1-cis-retinal oximes; 3,3′ syn- and anti-all-trans-retinal oximes; 4, all-trans-retinol.
Mice were gavaged with the solution of inhibitor in vegetable oil (control—non-treated, RPN—retinylpalmitamide, RAN—retinylacetamide, Ret—NH2-all-trans-retinylamine), kept in dark for 16 hours, then light stimulated and kept in dark for additional 5 hours before their eyes were analyzed.
Mouse retinoid extraction and analysis—Retinoid analysis was performed under dim red light as described previously (Maeda et al., J. Neurochem 85:944-956, 2003; Van Hooser et al., J Biol Chem 277:19173-82, 2002). Mice were gavaged with retinoids as described previously (Van Hooser et al., J Biol Chem 277:19173-82, 2002).

The test system of assay [5] is RPE protein(s). In words: gel filtration chromatography of DHPC-solubilized RPE microsome proteins with retinoid. The assay is classed as binding, bovine. The note with it: for gel filtration elution position (fractions): Superdex 200, native RPE extract, proteins elute in fractions 18-60. As to the method:
The specificity of Ret-NH2 was further tested by biochemical assays. […] When the RPE microsomes were solubilized with DHPC, the isomerase activity decreased only slightly. Then [^3H]-Ret-NH2 was added to the RPE extract and loaded on a gel filtration column. Proteins were fractionated and eluted between fractions 18 and 60 (FIG. 3A), while the radioactivity was eluted in fractions 36-38. RPE65 was identified by immunoblotting in fractions 23-34 (FIG. 3B). The most abundant proteins in this fraction were identified by mass spectrometry and include glucose phosphate isomerase, D-glyceraldehyde-3-phosphate dehydrogenase, phosphoglycerate mutase, triose phosphate isomerase, enolase, annexin V, calbindin 2, and LRAT. Identification of less abundant proteins is in progress.
RPE microsomes were solubilized with 10 mM DHPC, incubated with 11,12-di[^3H]-all-trans-Ret-NH2 (1 μM), and loaded on a Superdex 200 column equilibrated with Tris/HCl buffer, pH 7.5, containing 4 mM DHPC. Proteins were eluted with a constant flow rate of 0.4 ml/min. The protein and radioactivity levels of 0.4 ml fractions were examined by SDS-PAGE and scintillation counting (A), and immunoblot with anti-RPE65 and anti-LRAT antibodies (B). The star indicates the fraction associated with maximum radioactivity.
(In general: Size exclusion chromatography separates by hydrodynamic size, large species first.)

Sequence of CRALBP (P12271 whole entry, species assumed): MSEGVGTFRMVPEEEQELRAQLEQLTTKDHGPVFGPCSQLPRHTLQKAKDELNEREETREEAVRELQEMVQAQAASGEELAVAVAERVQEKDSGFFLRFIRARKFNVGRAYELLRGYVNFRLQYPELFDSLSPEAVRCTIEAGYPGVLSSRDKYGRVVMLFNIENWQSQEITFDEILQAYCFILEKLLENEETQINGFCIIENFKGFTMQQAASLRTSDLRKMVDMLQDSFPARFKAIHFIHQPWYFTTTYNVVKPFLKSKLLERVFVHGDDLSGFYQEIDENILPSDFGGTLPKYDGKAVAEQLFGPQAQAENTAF

For orientation: IC50 means the concentration that inhibits the measured activity by half. In the case of `CC(C=CC1=C(C)CCCC1(C)C)=CC=CC(C)=CCN` (single isomer, unassigned) [9-cis-Ret-NH2, 9-cis-retinylamine], the IC50 in assay [1] came to 640 nM.
`CC(C=CC1=C(C)CCCC1(C)C)=CC=CC(C)=CCN` (single isomer, unassigned) [11-cis-Ret-NH2, 11-cis-retinylamine]: in assay [1], the concentration for half-maximal inhibition (IC50) worked out at 70 nM and the “inhibition of isomerization (in words)” value was “most potent inhibitor”. For the same compound, the “binding to CRALBP” value in assay [2] is given as “did not reveal any significant levels”. For the same compound, the “formation of all-trans-retinyl esters (LRAT activity)” value in assay [3] is on record as “not affected”.
For `CC(C=CC1=C(C)CCCC1(C)C)=CC=CC(C)=CCN` (single isomer, unassigned) [13-cis-Ret-NH2, 13-cis-retinylamine], the IC50 in assay [1] was 730 nM.
As to `CCCCCCCCCCCCCCCC(=O)NC/C=C(C)/C=C/C=C(C)/C=C/C1=C(C)CCCC1(C)C` [N-Retinylpalmitamide], the “inhibition of isomerization (in words)” value in assay [1] is “did not inhibit isomerization”; in assay [1] (listed as N-palmitoylretinamide), “non-inhibitory”. For the same compound, the “inhibition of regeneration of vision chromophore in mice by retinylamides” value in assay [4] was “potent inhibitors of regeneration in mice”; in assay [4] (listed as RPN), “same as free retinylamine”.
Turning to `CC1=C(/C=C/C(C)=C/C=C/C(C)=C/CNO)C(C)(C)CCC1` [N-hydroxyretinylamine], the “inhibition of isomerization (in words)” value in assay [1] is “higher IC50”.
Consider `CC(=O)NC/C=C(C)/C=C/C=C(C)/C=C/C1=C(C)CCCC1(C)C` [N-retinylacetamide], for which, in assay [1], the “inhibition of isomerization (in words)” value is given as “weakly inhibit the isomerization reaction”. Moreover, the “inhibition of regeneration of vision chromophore in mice by retinylamides” value in assay [4] is on record as “potent inhibitors of regeneration in mice”; in assay [4] (listed as RAN), “same as free retinylamine”. In assay [5], the “gel filtration elution position (fractions)” value is recorded as “eluted either in the void volume or with low molecular weight compounds”.
Consider `CC(C=CC1=C(C)CCCC1(C)C)=CC=CC(C)CCN` (centres unmarked) [VIII], for which, in assay [1], the “lowering of potency by saturation of the C13-14 double bond” value was “about 10 fold”.
Consider `CC1=C(/C=C/C(C)=C/C=CC(C)CCN)C(C)(C)CCC1` (centres unmarked) [VII], for which the “lowering of potency by saturation of the C13-14 double bond” value in assay [1] is “about 10 fold”.
For the compound `[3H]C(C=C(C)C=CC1=C(C)CCCC1(C)C)=C([3H])C(C)=CCN` [[^3H]-Ret-NH2, 11,12-di[^3H]-all-trans-Ret-NH2], in assay [5] (control with heat-denaturated proteins), the “gel filtration elution position (fractions), heat-denaturated proteins” value is on record as 48-60.
As to `CC1=C(/C=C/C(C)=C/C=C/C(C)CCO)C(C)(C)CCC1` (stereo not drawn) [all-trans-13,14-dihydroretinol, reference compound], the “inhibition of isomerization (in words)” value in assay [1] is listed as “neither all-trans-thioretinol nor all-trans-13,14-dihydroretinol influenced the isomerization”.
The Km is the substrate concentration at which the rate is half of its maximum. In the case of `CC1=C(/C=C/C(C)=C/C=C/C(C)=C/CO)C(C)(C)CCC1` [all-trans-retinol, reference compound], in assay [1] (all-trans-retinol assumed to be a substrate), the Km is 0.3 µM. Also, in assay [1], the “inhibition of isomerization (in words)” value is on record as “weakly inhibit the isomerization reaction”. Moreover, the “gel filtration elution position (fractions)” value in assay [5] is given as “eluted either in the void volume or with low molecular weight compounds”.
Consider `CC1=C(/C=C/C(C)=C/C=C/C(C)=C/CS)C(C)(C)CCC1` [all-trans-thioretinol, reference compound], for which, in assay [1], the “inhibition of isomerization (in words)” value is “neither all-trans-thioretinol nor all-trans-13,14-dihydroretinol influenced the isomerization”.
